Earlier results on 2 compounds are cited in patent publication US20030082109A1, “Dextrorotary nicotine for smoking cessation” (priority 2001, published 2003).

SMILES strings stand for the structures. Read-outs that look alike come from different tables or passages of the source.

One data set concerns living organisms. To be noted: compared with l-isomer nicotine, found and reported.
For data set [1] the following is noted: given amount of d-isomer vs like amount of natural l-isomer, in a person.
The conditions of data set [2]: use as alternative alkaloid in smoking substitute; found and reported.

Regarding `CN1CCCC1c1cccnc1` (stereo not drawn) [d-isomer of nicotine, 1 methyl-2-(3-Pyridyl) pyrrolidine], the “toxicity relative to the natural tobacco-derived l-isomer of nicotine” value is on record as “one half as toxic” in the data set with living organisms and “half as toxic” with living organisms (listed as dextrorotary isomer of nicotine). For the same compound, the “sensations and satisfaction relative to a like amount of l-isomer nicotine” value in data set [1] was “same sensations and satisfaction”.

Consider `CN1[C@@H](CC(=O)c2ccccc2)CCC[C@H]1C[C@H](O)c1ccccc1` [lobeline], for which the adverse side effects result in data set [2] was “adverse side effects, which are worse than tobacco withdrawal symptoms”.
